Our source for the IC50 values is patent US8378104B2 (OSI Pharmaceuticals, LLC, priority 2010, dated 2013).

Counter-ions that a name gives are not always drawn.

The test system of one experiment is pJNK in HCT-116 cells. The experiment is described as follows: Phospho-JNK (Thr183/Tyr185) Meso Scale ELISA assay, TNFα-stimulated HCT-116 cells. Format: cell-based. To be noted: Homo sapiens, read-out: mean HCT-116 pJNK ELISA IC50 (Col. B). The gist of the method:
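HCT-116 cells in 1% FCS medium were pretreated with compound for 4 hrs at 37° C, then stimulated with TNFα at 10 ng/mL final for 10 minutes. Lysates were taken in ice-cold lysis buffer with phosphatase and protease inhibitors, and phospho-JNK (Thr183/Tyr185) was measured by Meso Scale ELISA.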
Background: ELISA stands for enzyme-linked immunosorbent assay.

The target in a further experiment is T1, TAK1-TAB1 fusion protein (Homo sapiens, UniProt O43318).
T1 construct: purchased Carna
T1 sequence (O43318 with tags, fused parts or gaps limits assumed): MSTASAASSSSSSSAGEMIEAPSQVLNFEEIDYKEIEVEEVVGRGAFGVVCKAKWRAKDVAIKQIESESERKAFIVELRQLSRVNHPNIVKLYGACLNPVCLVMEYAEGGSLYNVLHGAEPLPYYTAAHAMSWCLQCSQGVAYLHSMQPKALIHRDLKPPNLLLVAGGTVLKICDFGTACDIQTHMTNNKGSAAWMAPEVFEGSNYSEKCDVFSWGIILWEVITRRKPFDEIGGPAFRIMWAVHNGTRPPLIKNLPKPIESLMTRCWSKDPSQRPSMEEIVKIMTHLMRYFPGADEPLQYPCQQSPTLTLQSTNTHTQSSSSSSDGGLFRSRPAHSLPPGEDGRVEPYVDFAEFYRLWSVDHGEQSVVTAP
As to the kind of experiment: TAK1 biochemical assay (AlphaScreen, GST-MAP2K7 substrate). To be noted: TAK1-TAB1 fusion protein, GST-MAP2K7 substrate; read-out: mean TAK1 IC50 (Col. A). Background: In Alpha technology, singlet oxygen from a donor bead excites a nearby acceptor bead.

For orientation: IC50 means the point on the concentration scale where inhibition reaches its midpoint. Take `CC(=O)N1CCC(n2cc(-c3cnc(N)c4oc(-c5c(F)ccc6cnsc56)cc34)cn2)CC1` [Example 239, 1-(4-{4-[7-amino-2-(6-fluoro-1,2-benzothiazol-7-yl)furo[2,3-c]pyridin-4-yl]-1H-pyrazol-1-yl}piperidin-1-yl)ethanone diformate salt]: the 50% inhibitory concentration (IC50) with pJNK in HCT-116 cells and at TAK1-TAB1 fusion protein was 100 to 1000 nM throughout.
On to `Nc1ncc(-c2cnn([C@H]3CC[C@H](O)CC3)c2)c2cc(-c3c(F)ccc4nnsc34)oc12` [Example 272, trans-4-{4-[7-amino-2-(6-fluoro-1,2,3-benzothiadiazol-7-yl)furo[2,3-c]pyridin-4-yl]-1H-pyrazol-1-yl}cyclohexanol diformate salt], for which the IC50 with pJNK in HCT-116 cells and on TAK1-TAB1 fusion protein was under 100 nM in each case.
As for `CC(=O)N1CCC(n2cc(-c3cnc(N)c4oc(-c5cc(F)cc6cnsc56)cc34)cn2)CC1` [Example 237, 1-(4-{4-[7-amino-2-(5-fluoro-1,2-benzothiazol-7-yl)furo[2,3-c]pyridin-4-yl]-1H-pyrazol-1-yl}piperidin-1-yl)ethanone diformate salt], the half-maximal inhibitory concentration (IC50) in the experiment on pJNK in HCT-116 cells and on TAK1-TAB1 fusion protein was under 100 nM each time.
In the case of `Cc1cc(-c2cc3c(-c4cnn([C@H]5CC[C@H](O)CC5)c4)cnc(N)c3o2)c2snnc2c1` [Example 373, trans-4-{4-[7-amino-2-(5-methyl-1,2,3-benzothiadiazol-7-yl)furo[2,3-c]pyridin-4-yl]-1H-pyrazol-1-yl}cyclohexanol], the IC50 in the experiment with pJNK in HCT-116 cells and on TAK1-TAB1 fusion protein was under 100 nM each time.
As for `Nc1ncc(-c2cnn([C@@H]3C[C@H]4CC[C@@H](C3)N4C=O)c2)c2cc(-c3cccc4cnsc34)oc12` [Example 326, (3-exo)-3-{4-[7-amino-2-(1,2-benzisothiazol-7-yl)furo[2,3-c]pyridin-4-yl]-1H-pyrazol-1-yl}-8-azabicyclo[3.2.1]octane-8-carbaldehyde], the concentration for half-maximal inhibition (IC50) in the experiment on pJNK in HCT-116 cells and at TAK1-TAB1 fusion protein was under 100 nM throughout.
Turning to `N#Cc1ccc2cnsc2c1-c1cc2c(-c3cnn([C@H]4CC[C@H](O)CC4)c3)cnc(N)c2o1` [Example 372, 7-{7-amino-4-[1-(trans-4-hydroxycyclohexyl)-1H-pyrazol-4-yl]furo[2,3-c]pyridin-2-yl}-1,2-benzothiazole-6-carbonitrile.diformate], the IC50 in the experiment with pJNK in HCT-116 cells fell in the range of 100 to 1000 nM; at TAK1-TAB1 fusion protein, 1000 to 10000 nM.
The corresponding values for `CN1[C@@H]2CC[C@H]1C[C@H](n1cc(-c3cnc(N)c4oc(-c5cccc6cnsc56)cc34)cn1)C2` [Example 330, 2-(1,2-benziso-thiazol-7-yl)-4-{1-[(3-exo)-8-methyl-8-azabicyclo[3.2.1]oct-3-yl]-1H-pyrazol-4-yl}furo[2,3-c]pyridin-7-amine] are 100 to 1000 nM and under 100 nM.
Turning to `Nc1ncc(-c2cnn([C@@H]3CCC[C@@H](O)C3)c2)c2cc(-c3cccc4cnsc34)oc12` (relative stereo) [Example 313, trans-3-[4-(7-amino-2-benzo[d]isothiazol-7-yl-furo[2,3-c]pyridin-4-yl)-pyrazol-1-yl]-cyclohexanol], the IC50 in the experiment on pJNK in HCT-116 cells was 100 to 1000 nM; at TAK1-TAB1 fusion protein it was under 100 nM.
For `Nc1ncc(-c2cnn([C@H]3CC[C@H](O)CC3)c2)c2cc(-c3ccccc3)oc12` [Example 368, trans-4-[4-(7-amino-2-phenylfuro[2,3-c]pyridin-4-yl)-1H-pyrazol-1-yl]cyclohexanol], the IC50 with pJNK in HCT-116 cells and at TAK1-TAB1 fusion protein was 100 to 1000 nM throughout.
For `CC(=O)N1CCC(n2cc(-c3cnc(N)c4oc(-c5cccc6cnncc56)cc34)cn2)CC1` [Example 367, 1-(4-{4-[7-amino-2-(phthalazin-5-yl)furo[2,3-c]pyridin-4-yl]-1H-pyrazol-1-yl}piperidin-1-yl)ethanone], the IC50 with pJNK in HCT-116 cells and at TAK1-TAB1 fusion protein was 100 to 1000 nM each time.
For `CCNc1nc2cccc(-c3cc4c(-c5cnn([C@H]6CC[C@H](O)CC6)c5)cnc(N)c4o3)c2s1` [Example 355, trans-4-(4-{7-amino-2-[2-(ethylamino)-1,3-benzothiazol-7-yl]furo[2,3-c]pyridin-4-yl}-1H-pyrazol-1-yl)cyclohexanol Trifluoroacetate (Salt)], the IC50 with pJNK in HCT-116 cells and on TAK1-TAB1 fusion protein was under 100 nM each time.
For the compound `COCc1nc2cccc(-c3cc4c(-c5cnn(C6CCN(C(C)=O)CC6)c5)cnc(N)c4o3)c2s1` [Example 348, 1-[4-(4-{7-amino-2-[2-(methoxymethyl)-1,3-benzothiazol-7-yl]furo[2,3-c]pyridin-4-yl}-1H-pyrazol-1-yl)piperidin-1-yl]ethanone trifluoroacetate], the IC50 with pJNK in HCT-116 cells and at TAK1-TAB1 fusion protein was under 100 nM each time.
For the compound `CC(=O)N1CCC(n2cc(-c3cnc(N)c4oc(-c5c6ccncc6nn5C)cc34)cn2)CC1` [Example 364, 1-(4-{4-[7-amino-2-(2-methyl-2H-pyrazolo[3,4-c]pyridin-3-yl)furo[2,3-c]pyridin-4-yl]-1H-pyrazol-1-yl}piperidin-1-yl)ethanone trifluoroacetic Acid Salt], the figures for the IC50 in the experiment with pJNK in HCT-116 cells and at TAK1-TAB1 fusion protein were 1000 to 10000 nM and 100 to 1000 nM, respectively.
`CC(=O)N1CCC(n2cc(-c3cnc(N)c4oc(-c5c(C#N)sc6cnccc56)cc34)cn2)CC1` [Example 264, 3-{4-[1-(1-acetylpiperidin-4-yl)-1H-pyrazol-4-yl]-7-aminofuro[2,3-c]pyridin-2-yl}thieno[2,3-c]pyridine-2-carbonitrile Trifluoroacetate]: the concentration for half-maximal inhibition (IC50) with pJNK in HCT-116 cells was under 100 nM; at TAK1-TAB1 fusion protein it was 100 to 1000 nM.
On to `Cc1ncc(-c2cnc(N)c3oc(-c4csc5cnccc45)cc23)s1` [Example 388, 4-(2-methyl-1,3-thiazol-5-yl)-2-(thieno[2,3-c]pyridin-3-yl)furo[2,3-c]pyridin-7-amine trifluoroacetate], for which the IC50 in the experiment with pJNK in HCT-116 cells and on TAK1-TAB1 fusion protein was 100 to 1000 nM each time.
Consider `CN(C)C(=O)CCn1cc(-c2cnc(N)c3oc(-c4csc5cnccc45)cc23)cn1` [Example 346, 3-[4-(7-amino-2-thieno[2,3-c]pyridin-3-yl-furo[2,3-c]pyridin-4-yl)-pyrazol-1-yl]-N,N-dimethyl-propionamide], for which the concentration for half-maximal inhibition (IC50) with pJNK in HCT-116 cells lay in the range of 1000 to 10000 nM; at TAK1-TAB1 fusion protein, 100 to 1000 nM.
Consider `CC(=O)N1CCC(n2cc(-c3cnc(N)c4oc(-c5cccc6ncsc56)cc34)cn2)CC1` [Example 225, 1-(4-{4-[7-amino-2-(1,3-benzothiazol-7-yl)furo[2,3-c]pyridin-4-yl]-1H-pyrazol-1-yl}piperidin-1-yl)ethanone diformate salt], for which the concentration for half-maximal inhibition (IC50) in the experiment on pJNK in HCT-116 cells and on TAK1-TAB1 fusion protein was under 100 nM each time.
On to `CC(C)N1[C@@H]2CC[C@H]1C[C@H](n1cc(-c3cnc(N)c4oc(-c5csc6cnccc56)cc34)cn1)C2` [Example 329, 4-{1-[(3-exo)-8-(propan-2-yl)-8-azabicyclo[3.2.1]oct-3-yl]-1H-pyrazol-4-yl}-2-(thieno[2,3-c]pyridin-3-yl)furo[2,3-c]pyridin-7-amine], for which the half-inhibitory concentration (IC50) in the experiment on pJNK in HCT-116 cells is 100 to 1000 nM; on TAK1-TAB1 fusion protein it was under 100 nM.
On to `CNc1ncc(-c2cnn([C@H]3CC[C@H](O)CC3)c2)c2cc(-c3cccc4cnsc34)oc12` [Example 282, trans-4-{4-[2-(1,2-benzothiazol-7-yl)-7-(methylamino)furo[2,3-c]pyridin-4-yl]-1H-pyrazol-1-yl}cyclohexanol], for which the IC50 with pJNK in HCT-116 cells and at TAK1-TAB1 fusion protein was 100 to 1000 nM throughout.
As to `CCNc1nc2cccc(-c3cc4c(-c5cnn(C6CCN(C(C)=O)CC6)c5)cnc(N)c4o3)c2s1` [Example 354, 1-[4-(4-{7-amino-2-[2-(ethylamino)-1,3-benzothiazol-7-yl]furo[2,3-d]pyridin-4-yl}-1H-pyrazol-1-yl)piperidin-1-yl]ethanone trifluoroacetate], the IC50 in the experiment on pJNK in HCT-116 cells and at TAK1-TAB1 fusion protein was under 100 nM each time.
Consider `Nc1ncc(-c2cnn([C@H]3CC[C@H](O)C3)c2)c2cc(-c3csc4cnccc34)oc12` [Example 307, (1S,3S)-3-[4-(7-amino-2-thieno[2,3-c]pyridin-3-yl-furo[2,3-c]pyridin-4-yl)-pyrazol-1-yl]-cyclopentanol], for which the IC50 in the experiment on pJNK in HCT-116 cells was 100 to 1000 nM; on TAK1-TAB1 fusion protein, under 100 nM.
With `CNc1nc2cccc(-c3cc4c(-c5cnn(C6CCN(C(C)=O)CC6)c5)cnc(N)c4o3)c2s1` [Example 350, 1-[4-(4-{7-amino-2-[2-(methylamino)-1,3-benzothiazol-7-yl]furo[2,3-d]pyridin-4-yl}-1H-pyrazol-1-yl)piperidin-1-yl]ethanone trifluoroacetate], the IC50 with pJNK in HCT-116 cells and at TAK1-TAB1 fusion protein was under 100 nM in each case.
Consider `Nc1ncc(-c2cnn([C@H]3CC[C@H](O)CC3)c2)c2cc(-c3cccc4sncc34)oc12` [Example 242, trans-4-{4-[7-amino-2-(1,2-benzothiazol-4-yl)furo[2,3-c]pyridin-4-yl]-1H-pyrazol-1-yl}cyclohexanol Diformate Salt], for which the half-inhibitory concentration (IC50) with pJNK in HCT-116 cells and on TAK1-TAB1 fusion protein was under 100 nM in each case.
On to `Nc1ncc(-c2cnn(C3CCC(O)C3)c2)c2cc(-c3csc4cnccc34)oc12` (stereo not drawn) [Example 306, 3-[4-(7-amino-2-thieno[2,3-c]pyridin-3-yl-furo[2,3-c]pyridin-4-yl)-pyrazol-1-yl]-cyclopentanol], for which the half-inhibitory concentration (IC50) with pJNK in HCT-116 cells is 100 to 1000 nM; at TAK1-TAB1 fusion protein it was under 100 nM.
